Some test systems named below: HCT-116; UACC-62; HT-29; NCI-H23; SW-620; SK-OV-3; SN12C; HCC 2998; OVCAR-8; Malme-3M; U-251; SK-MEL-28; HCT-15; NCI-H226; NCI-H522; CAKI-1.
Common to all, as to assay: inhibition of tumour cell growth, NCI panel, 48 h

Molecules are shown by their SMILES. Several values for one entry are separate records, joined by “and”; a condition that tells them apart may be missing. Identical values can stand only once.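 Each compound was tested at five concentrations against cells in 96-well plates for 48 hours. Here, GI50 denotes the concentration required for 50% inhibition of growth.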 Activity calls are given as the source filed them. Cut-off read from the data, not from the text of the source: active = GI50 up to about 1.1 µM and inactive = higher.

Consider 13 compounds from ChEMBL document CHEMBL1201862, “PubChem BioAssay data set” (2004).

`C/C(=N\OCC(O)CNC(C)C)c1ccc2c(c1)NC(=O)CS2` (stereo unspecified): the GI50 with HCT-116, in the test with UACC-62, in the test with HT-29, in the test on NCI-H23, in the test on SW-620 and in the test with SK-OV-3 was > 100 µM (inactive) each time. In addition, the GI50 in the test on SN12C, in the test with HCC 2998, in the test with OVCAR-8, in the test with Malme-3M, in the test on U-251 and with SK-MEL-28 was > 100 µM (inactive) in each case. In addition, the results for the GI50 in the test on HCT-15, in the test with NCI-H226 and in the test with NCI-H522 were above 100 µM, > 100 µM (inactive) and > 100 µM (inactive), respectively.
Regarding `CCOC(=O)/C(=C/c1ccc(C(F)(F)F)cc1)N(CC)CC`, the GI50 with HCT-116 was 40 µM (inactive); in the test with UACC-62, 35.4 µM (inactive); with HT-29, > 100 µM (inactive); in the test with NCI-H23, 37.3 µM (inactive); with SW-620 it was 84.1 µM (inactive); with SK-OV-3, 66.4 µM (inactive). For the same compound, the GI50 was 53.3 µM (inactive) with SN12C; > 100 µM (inactive) in the test with HCC 2998; 58.6 µM (inactive) in the test on CAKI-1; 56 µM (inactive) in the test on OVCAR-8; 57.5 µM (inactive) with Malme-3M; 41 µM (inactive) with U-251. Further, the GI50 in the test with SK-MEL-28 was > 100 µM (inactive); in the test on HCT-15, 40.6 µM; with NCI-H226 it was 48.4 µM (inactive); in the test with NCI-H522 it was 31.6 µM (inactive).
`O=C1c2ccccc2-c2c3c(cc4ccnc1c24)OCO3` [LIRIODENINE]: the GI50 with HCT-116 was 3.29 µM (inactive) and 3.17 µM (inactive); with UACC-62, 4.57 µM (inactive) and 2.77 µM (inactive); in the test with HT-29, 4.95 µM (inactive) and 4.06 µM (inactive); in the test with NCI-H23, 4.05 µM (inactive) and 5.4 µM (inactive); in the test with SW-620 it was 4.92 µM (inactive) and 3.82 µM (inactive); in the test with SK-OV-3 it was 22.2 µM (inactive) and 17.9 µM (inactive). The GI50 was 4.98 µM (inactive) and 5.82 µM (inactive) with SN12C; 4.51 µM (inactive) in the test on HCC 2998; 3.63 µM (inactive) and 3.77 µM (inactive) in the test on CAKI-1; 4.04 µM (inactive) and 5.14 µM (inactive) with OVCAR-8; 3.59 µM (inactive) and 3.03 µM (inactive) in the test on Malme-3M; 6.32 µM (inactive) and 5.45 µM (inactive) with U-251. The GI50 was 5.58 µM (inactive) and 5.27 µM (inactive) with SK-MEL-28; 4.9 µM and 4.42 µM with HCT-15; 4.69 µM (inactive) and 5.27 µM (inactive) in the test on NCI-H226.
`OC1c2ccccc2C2(O)C1C(c1ccccc1)C(c1ccccc1)C2(O)c1ccccc1` (stereo unspecified): the GI50 with UACC-62 is 10.4 µM (inactive); with HT-29, 9.86 µM (inactive); in the test with NCI-H23, 13.3 µM (inactive); in the test with SW-620, 15.8 µM (inactive); in the test on SK-OV-3, 22.2 µM (inactive); in the test with SN12C, 11.4 µM (inactive). Further, the GI50 was 11.2 µM (inactive) in the test on HCC 2998; 15.5 µM (inactive) in the test on CAKI-1; 12.6 µM (inactive) in the test on OVCAR-8; 12.7 µM (inactive) with Malme-3M; 8.17 µM (inactive) in the test on U-251; 11.9 µM (inactive) in the test on SK-MEL-28. The GI50 with HCT-15 was 3.06 µM; with NCI-H522, 6.34 µM (inactive).
In the case of `CCOC(=O)C1N(S(=O)(=O)c2ccc(C)cc2)CCC12C(c1ccc(OC)cc1)NC1CCCCC12` (stereo unspecified), the GI50 in the test with HCT-116, in the test with UACC-62, in the test with HT-29, in the test on NCI-H23, in the test with SW-620 and in the test on SK-OV-3 was > 100 µM (inactive) each time. The GI50 with SN12C was > 100 µM (inactive); in the test on HCC 2998, > 100 µM (inactive); in the test with CAKI-1 it was > 100 µM (inactive); in the test on OVCAR-8, > 100 µM (inactive); in the test with Malme-3M it was 67.3 µM (inactive); in the test on U-251, 70.8 µM (inactive). The GI50 in the test with SK-MEL-28 was > 100 µM (inactive); in the test with HCT-15, above 100 µM; in the test with NCI-H226, > 100 µM (inactive); with NCI-H522, > 100 µM (inactive).
For the compound `CCOC(=O)C(Cc1ccc([N+](=O)[O-])cc1)NC(=O)CC1c2ccccc2-c2ccccc21` (stereo unspecified), the GI50 was > 100 µM (inactive) with HCT-116; > 100 µM (inactive) with UACC-62; > 100 µM (inactive) in the test with HT-29; > 100 µM (inactive) in the test with NCI-H23; > 100 µM (inactive) in the test on SW-620; 78.7 µM (inactive) in the test with SK-OV-3. Further, the GI50 in the test on SN12C was 67.8 µM (inactive); in the test with HCC 2998 it was > 100 µM (inactive); in the test on OVCAR-8, 63.8 µM (inactive); with Malme-3M it was 20.6 µM (inactive); in the test with U-251 it was 43.9 µM (inactive); in the test on SK-MEL-28, 90.8 µM (inactive). The GI50 is above 100 µM with HCT-15, > 100 µM (inactive) in the test with NCI-H226 and > 100 µM (inactive) with NCI-H522.
As to `Cc1c2c(c(C)c3c1[nH]c1ccccc13)CN(C)CC2`, the GI50 is 16 µM (inactive) with HCT-116; 18 µM (inactive) with UACC-62; 16.7 µM (inactive) in the test on HT-29; 15.4 µM (inactive) in the test on NCI-H23; 15.3 µM (inactive) with SW-620; 25.5 µM (inactive) in the test on SK-OV-3. In addition, the GI50 in the test with SN12C was 20.6 µM (inactive); with HCC 2998 it was 16.7 µM (inactive); with CAKI-1 it was 13.2 µM (inactive); with OVCAR-8 it was 16.4 µM (inactive); in the test on Malme-3M it was 16.7 µM (inactive); with U-251 it was 12.1 µM (inactive). Further, the GI50 with SK-MEL-28 is 19.2 µM (inactive); in the test on HCT-15 it was 15.3 µM; in the test on NCI-H226, 19.1 µM (inactive); with NCI-H522, 17 µM (inactive).
Take `O=C(O)CCSC(=O)Nc1cccc(F)c1`: the GI50 is 0.228 µM (active) in the test on UACC-62; > 100 µM (inactive) with HT-29; > 100 µM (inactive) in the test on NCI-H23; > 100 µM (inactive) in the test with SW-620; > 100 µM (inactive) in the test with SN12C; > 100 µM (inactive) in the test with HCC 2998. In addition, the GI50 with OVCAR-8 is > 100 µM (inactive); with U-251 it was > 100 µM (inactive); in the test with SK-MEL-28, > 100 µM (inactive); in the test on HCT-15 it was above 100 µM; in the test with NCI-H226, > 100 µM (inactive).
Regarding `Cc1cn(Cc2ccccc2CCO)c(=S)[nH]c1=O`, the GI50 with UACC-62, in the test on HT-29, with NCI-H23, with SW-620, with SK-OV-3 and in the test on SN12C was > 100 µM (inactive) in each case. Also, the GI50 is > 100 µM (inactive) with CAKI-1; > 100 µM (inactive) in the test with OVCAR-8; > 100 µM (inactive) with Malme-3M; > 100 µM (inactive) with U-251; > 100 µM (inactive) in the test on SK-MEL-28; above 100 µM with HCT-15. Also, the GI50 in the test on NCI-H226 is 34.8 µM (inactive); in the test with NCI-H522, > 100 µM (inactive).
Regarding `Cc1cc(C)cc(NC(N)=S)c1`, the GI50 in the test with HCT-116 was 35.5 µM (inactive); in the test with UACC-62 it was > 100 µM (inactive); with HT-29, 40.9 µM (inactive); in the test with NCI-H23, > 100 µM (inactive); with SW-620 it was 4.06 µM (inactive); with SN12C it was > 100 µM (inactive). Also, the GI50 in the test on HCC 2998 was > 100 µM (inactive); with CAKI-1, > 100 µM (inactive); in the test with OVCAR-8 it was > 100 µM (inactive); in the test with Malme-3M it was > 100 µM (inactive); in the test with U-251 it was 38.6 µM (inactive); with SK-MEL-28, > 100 µM (inactive). Moreover, the GI50 is 17.9 µM in the test with HCT-15, > 100 µM (inactive) with NCI-H226 and > 100 µM (inactive) in the test on NCI-H522.
Take `Cc1ccc(/C=N/NS(=O)(=O)c2ccccc2)c(C)c1`: the GI50 in the test with HCT-116, with UACC-62, in the test with HT-29, with NCI-H23, in the test with SW-620 and with SK-OV-3 was > 100 µM (inactive) throughout. Further, the GI50 with SN12C, with HCC 2998, in the test with CAKI-1, in the test on OVCAR-8, in the test on Malme-3M and in the test on U-251 was > 100 µM (inactive) throughout. Further, the values for the GI50 in the test with SK-MEL-28, in the test with HCT-15 and in the test with NCI-H226 were > 100 µM (inactive), above 100 µM and > 100 µM (inactive), respectively.
As for `COC(=O)c1c[nH]cc1CCCCc1c[nH]cc1C(=O)OC`, the GI50 with HCT-116, in the test with HT-29, in the test with NCI-H23, in the test on SW-620, in the test on SK-OV-3 and in the test on SN12C was > 100 µM (inactive) throughout. The GI50 in the test on HCC 2998, in the test with CAKI-1, in the test with OVCAR-8, in the test with Malme-3M, with U-251 and in the test on SK-MEL-28 was > 100 µM (inactive) throughout. Further, the GI50 in the test on NCI-H226 and in the test on NCI-H522 was > 100 µM (inactive) throughout.
For the compound `COC(=O)[C@]1(C)CCC[C@]2(C)C3CC4OOC3(C=C4C(C)C)CCC21` (stereo partly specified), the GI50 in the test with HCT-116 was 15.7 µM (inactive); with UACC-62 it was 17.1 µM (inactive); in the test on HT-29, 14.7 µM (inactive); in the test with NCI-H23, 18.8 µM (inactive); in the test with SW-620, 16 µM (inactive); in the test on SK-OV-3 it was 20.1 µM (inactive). In addition, the GI50 was 16.8 µM (inactive) with SN12C; 16.5 µM (inactive) in the test on HCC 2998; 21.9 µM (inactive) in the test on CAKI-1; 19.8 µM (inactive) in the test on OVCAR-8; 20.8 µM (inactive) in the test with Malme-3M; 19.8 µM (inactive) in the test with U-251. In addition, the GI50 in the test with HCT-15 was 16.5 µM; in the test with NCI-H226 it was 19.6 µM (inactive); with NCI-H522, 1.78 µM (inactive).
